ChEMBL document CHEMBL1137198, “Discovery of thiadiazoles as a novel structural class of potent and selective PDE7 inhibitors. Part 2: metabolism-directed optimization studies towards orally bioavailable derivatives” (Bioorg Med Chem Lett, 2004)
pIC50: −log10 of the molar value. ≈ marks a conversion by molar mass, not a printed value.

Legend:
[1] = Volume of distribution at 0.5 mg/kg i.v.; assay type: ADME, organism-based; set-up: dose 0.5 mg/kg, route intravenous; conditions: in vivo, iv
[2] = Reduction in Clearance when compared with compound 1; assay type: ADME, organism-based; conditions: in vivo
[3] = Half life at 2.5 mg/kg po.; assay type: ADME, organism-based; set-up: dose 2.5 mg/kg; conditions: in vivo
[4] = Oral bioavailability (dose 2.5 mg/kg); assay type: ADME, organism-based; conditions: eutheria, in vivo
[5] = Clearance at 0.5 mg/kg i.v.; assay type: ADME, organism-based; set-up: dose 0.5 mg/kg, route intravenous; conditions: in vivo, iv
[6] = Solubility at pH 7.4; assay type: physicochemical; conditions: buffer
[7] = Reduction in clearance when compared with compound 1; assay type: ADME, organism-based; conditions: in vivo
[8] = Inhibition of human Phosphodiesterase 7A1 or human phosphodiesterase 4D3 expressed in baculovirus infected Sf9 cells

Cn1nc(-c2ccc(C(=O)NC(C)(C)CO)cc2)s/c1=N\C1CCCC(O)C1 (centres undefined)
Vd ([1]; read-out: Vd): 0.43 L/kg
CL_Ratio [2]: 86%
half-life [3]: 0.46 h
bioavailability [4]: 63%
clearance [5]: 24.9 mL/min/kg
solubility ([6]; read-out: Solubility): 58 µg/mL (≈ 143 µM)

Cn1nc(-c2cccc(C#N)c2)s/c1=N\c1cccc(C(=O)O)c1
Vd ([1]; read-out: Vd): 0.99 L/kg
half-life [3]: 4.75 h
bioavailability [4]: 37%
clearance [5]: 2.65 mL/min/kg
solubility ([6]; read-out: Solubility): 295 µg/mL (≈ 877 µM)

Cn1nc(-c2ccc(C(N)=O)cc2)s/c1=N\C1CCCCC1
Vd ([1]; read-out: Vd): 7.65 L/kg
clearance [5]: 179 mL/min/kg
solubility ([6]; read-out: Solubility): 4 µg/mL (≈ 12.6 µM)

Cn1nc(-c2ccc(S(C)(=O)=O)cc2)s/c1=N\C1CCCC(O)C1 (stereo in doubt; 21a 9(R,R))
Vd [1]: 0.62 L/kg
CL_Ratio [2]: 91%
T1/2 [3]: 2.5 h
Cl [5]: 15.1 mL/min/kg
solubility [6]: 160 µg/mL (≈ 435 µM)

Cn1nc(-c2ccc(S(C)(=O)=O)cc2)s/c1=N\C1CCCC(O)C1 (stereo in doubt)
Vd ([1]; read-out: Vd): 0.92 L/kg
CL_Ratio [2]: 93%
half-life [3]: 2 h
bioavailability [4]: 100%
clearance [5]: 12.2 mL/min/kg
solubility ([6]; read-out: Solubility): 135 µg/mL (≈ 367 µM)

CN1CCN(C(=O)c2ccc(-c3nn(C)/c(=N/C4CCCCC4)s3)cc2)CC1
Vd ([1]; read-out: Vd): 2.59 L/kg
CL_Ratio [2]: 75%
half-life [3]: 1.37 h
bioavailability [4]: 85%
clearance [5]: 44.8 mL/min/kg
solubility ([6]; read-out: Solubility): 350 µg/mL (≈ 876 µM)

Cn1nc(-c2ccc(S(C)(=O)=O)cc2)s/c1=N\c1cccc(C(=O)O)c1
Vd ([1]; read-out: Vd): 7.58 L/kg
half-life [3]: 2.7 h
bioavailability [4]: 29.3%
clearance [5]: 15.8 mL/min/kg
solubility ([6]; read-out: Solubility): 370 µg/mL (≈ 950 µM)

Cn1nc(-c2ccc(Cl)cc2)s/c1=N\c1ccc(F)c(C(=O)O)c1
Vd ([1]; read-out: Vd): 0.18 L/kg
half-life [3]: 1.96 h
bioavailability [4]: 49.3%
clearance [5]: 3.9 mL/min/kg
solubility ([6]; read-out: Solubility): 145 µg/mL (≈ 399 µM)

CC(=O)Nc1ccc(-c2nn(C)/c(=N/C3CCCCC3)s2)cc1
Vd ([1]; read-out: Vd): 3.3 L/kg
CL_Ratio [2]: 58%
half-life [3]: 0.74 h
bioavailability [4]: 19.6%
clearance [5]: 74.7 mL/min/kg
solubility ([6]; read-out: Solubility): 8 µg/mL (≈ 24.2 µM)

Cn1nc(-c2ccc(C(N)=O)cc2)s/c1=N\C1CCCC(O)C1 (stereo in doubt; trans)
Vd [1]: 1.78 L/kg
CL_Ratio [7]: 67%
T1/2 [3]: 1.8 h
F [4]: 38.5%
Cl [5]: 59.9 mL/min/kg

CC(=O)Nc1ccc(-c2nn(C)/c(=N/C3CCCC(O)C3)s2)cc1 (trans isomer)
Vd ([1]; read-out: Vd): 2.02 L/kg
CL_Ratio [2]: 92%
half-life [3]: 2.3 h
bioavailability [4]: 76%
clearance [5]: 13.3 mL/min/kg
solubility ([6]; read-out: Solubility): 350 µg/mL (≈ 1010 µM)

Cn1nc(-c2ccc(C(N)=O)cc2)s/c1=N\C1CCCC(O)C1 (stereo in doubt; cis)
pIC50 [8]: 5.78
Vd ([1]; read-out: Vd): 1.39 L/kg
CL_Ratio [7]: 81%
half-life [3]: 1.42 h
F [4]: 61.2%
clearance [5]: 34.4 mL/min/kg

Cn1nc(-c2ccc(C(N)=O)cc2)s/c1=N\C1CCC(O)CC1 (centres undefined)
Vd ([1]; read-out: Vd): 0.98 L/kg
CL_Ratio [7]: 62%
half-life [3]: 0.27 h
bioavailability [4]: 7%
clearance [5]: 66.9 mL/min/kg

Cn1nc(-c2ccc(C(N)=O)cc2)s/c1=N\C1CCCCC1O (stereo in doubt; trans)
Vd ([1]; read-out: Vd): 1.47 L/kg
CL_Ratio [7]: 79%
half-life [3]: 0.31 h
bioavailability [4]: 24.7%
clearance [5]: 38.2 mL/min/kg
